# Measurements from patent US5387409A, “Boronic acid adducts of rhenium dioxime and technetium-99m dioxime complexes containing a biochemically active group” (Bracco International B.V., priority 1992, dated 1995).
# How the values were obtained:
# [1] = Cyclic voltammetry in DMF (peak potential vs. Ag/AgNO3); assay type: physicochemical; conditions: for Epc(DMF): cathodic peak potential in DMF vs. Ag/AgNO3 (Table 3); for Peak Potential (EP), Nitro-base Anodic / Peak Potential (EP), Nitro-base Cathodic: DMF, scan rate = 100 mV/sec, Ag/AgNO3 reference (Table 2)
# [2] = test system: xanthine oxidase; assay: Enzyme assay: xanthine oxidase reduction (disappearance of the nitro compound, UV/Visible 326 nm); assay type: biochemical
# Procedure: The nitroimidazole boronic acids in this invention were examined in an assay using the enzyme xanthine oxidase. […] All reagents were degassed prior to mixing by passage of argon over the surface for 20 minutes. Loss of the nitro group (an indication of reduction) was monitored every 5 minutes using a UV/Visible spectrophotometer set at 326 nm. The half-lives of disappearance of the nitro compounds were determined by plotting log (concentration) mmole/ml vs time for all compounds studied.
# [3] = Electrochemical peak potential (cathodic) in water vs. saturated calomel electrode; assay type: physicochemical; conditions: cathodic peak potential in water vs. saturated calomel electrode (Table 3)
# [4] = Biodistribution: lung uptake of amine-containing 99mTc (BATO) complexes in rats; assay type: in vivo; conditions: I.V.
# Procedure: Biodistribution Results for Amine-substituted Boron complexes, ^99m Tc(chloride)(dimethylglyoxime)3 B-R (wherein R is or contains an amine)
# The other complexes listed were prepared using the methodology described in Example 2. Lung uptake at 5 and 60 minutes post I.V. administration of these compounds was noted.
# [5] = test system: estrogen receptor; assay: In vitro estrogen receptor binding studies, cytosolic preparations of isolated rat uteri; conditions: rat uteri cytosol; preparations with specific activity from 400 to 2000 Ci/mmol
# [6] = hypoxanthine, pH 7.4, 0.25 μMoles nitro compound
Compound,Epc(DMF) [1],"half life (enzyme assay) [2, 6]",Epc(Aqueous) [3],"Peak Potential (EP), Nitro-base Anodic [1]","Peak Potential (EP), Nitro-base Cathodic [1]",further results
"O=[N+]([O-])c1cn(Cc2ccc(B(O)O)cc2)cn1 [BB4NO2, 1-(4-Nitroimidazole)-benzylboronic acid]",-1.80 V,95 min,-0.50 V,–,–,–
"O=[N+]([O-])c1nccn1Cc1ccc(B(O)O)cc1 [BBNO2, 1-(2-Nitroimidazoyl)benzylboronic acid]",–,11 min,–,–,–,–
"O=[N+]([O-])c1nccn1CCc1ccc(B(O)O)cc1 [BPhEtNO2, 4-(2-Nitroimidazolylethyl)phenyl boronic acid]",-1.53 V,42.5 min,-0.30 V,–,–,–
"O=[N+]([O-])c1nccn1CC=CB(O)O [BPropeneNO2, 2-Nitroimidazolyl-N1-[2-propenyl]-3-boronic acid]",-1.56 V,24 min,-0.30 V,–,–,–
"Cc1ncc([N+](=O)[O-])n1CCO [Metronidazole, reference compound]",-1.62 V,–,-0.46 V,-1.55,-1.63,half life (enzyme assay) ([2]; pH 7.4): > 1440 min
"COCC(O)Cn1ccnc1[N+](=O)[O-] (stereo not drawn) [Misonidazole, reference compound]",-1.49 V,45 min,-0.33 V,-1.43,-1.51,–
"^99 Tc(chlorine)(1,2-cyclohexanedione dioxime)3 1-(2-nitroimidazoyl)benzyl boron [Complex of Example 13]",–,–,–,-1.50,-1.56,–
^99 Tc(chlorine)(dimethylglyoxime)3 -1-(2-nitroimidazoyl)benzylboron [Complex of Example 15],–,–,–,-1.51,-1.58,–
^99m Tc(chloride)(dimethylglyoxime)3 [4-[2-[(1-methylethyl)amino]propyl]phenyl]boron,–,–,–,–,–,"% Injected Dose in Lungs, 5 min. P.I. ([4]; 5 min. post-injection): 3.25 % Injected Dose; % Injected Dose in Lungs, 60 min. P.I. ([4]; 60 min. post-injection): 2.19 % Injected Dose"
^99m/99 Tc(chloride)(dimethylglyoxime)3 (estradiol boron) [technetium labeled estradiol],–,–,–,–,–,specific binding [5]: 10-30 % of the total bound activity
